Results reported in patent publication US20010046992A1, “Treatment of urinary tract infections with antibacterial oxazolidinones” (priority 2000, published 2001).

Assay: loss of linezolid in IV solution during and following terminal moist heat sterilization in the container
Format: physicochemical
Details: container-solution contact surface made of at least 50% polyolefin
Text: It is well known to those skilled in the art that pharmaceutical agents administered IV must be sterile. While there are a number of methods to sterilize an IV solution, it is preferred to terminally moist heat or steam sterilize IV solutions of antibacterial oxazolidinones including those of linezolid. When the term terminally “moist heat sterilize” is used, it refers to and includes steam sterilization.
When terminally moist heat sterilizing an IV solution, the solution is placed in the container in which (1) it will be stored and then transferred to the container from which it will ultimately be administered, or (2) stored and then ultimately administered from the same container to deliver the IV solution to the patient. Therefore, it is imperative that the pharmaceutically active ingredient (oxazolidinone, linezolid) not react with the container in which it is to be terminally moist heat sterilized and stored/stored-administered.
What is essential is that the container-solution contact surface material be primarily a polyolefin; the remainder of the container can be made from polyolefin or other materials. It is preferred that the container-solution contact surface is made of from about 50 to about 100% polyolefin. It is more preferred that the container-solution contact surface is made of from about 70 to about 90% polyolefin. […]

loss of linezolid during and following terminal moist heat sterilization: significantly much less loss
Structure (SMILES): CC(=O)NC[C@H]1CN(c2ccc(N3CCOCC3)c(F)c2)C(=O)O1 [linezolid, (S)-N-[[3-[3-fluoro-4-(4-morpholinyl)phenyl]-2-oxo-5-oxazolidinyl]methyl]acetamide]
